According to publication PMC7377239, “Cardiovascular Effects of Polychlorinated Biphenyls and Their Major Metabolites” (Environmental Health Perspectives, 2020):
Read-outs that look alike come from different tables or passages of the source.

How the values were obtained:
HUVECs = test: Tube formation (tubulogenesis) assay in HUVECs, 18 h; format: cell-based, human; conditions: Homo sapiens, HUVEC, 18 h, HUVEC; for activity at 0.1 µM: 0.10 µM
Procedure, shortened: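 HUVECs (passage 1–5) seeded on reduced-growth-factor basement membrane and exposed to compounds overnight at 37°C, 5% CO2, in 2× maintenance medium with 12.5 ng/mL VEGF; 0.5% DMSO vehicle. Calcein AM-stained tube networks imaged and analysed; vehicle-normalized readouts fit to four-parameter logistic, POD set at one SD of vehicle means.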

[1] = system: iPSC-CMs, iPSC-ECs and HUVECs phenotypes; test: ToxPi 2.0 integration of POD values and physicochemical descriptors; set-up: species or system human; conditions: ToxPi-scaled (0-1) score; for huvec.cyto.24hr / huvec.mito.24hr / huvec.mitoint.24hr / huvec.nma.24hr / huvec.tc.24hr / huvec.mtl.18hr / huvec.tlps.18hr / huvec.tta.18hr / huvec.ttl.18hr: HUVECs; for huvec.mtl.18hr / huvec.tlps.18hr / huvec.tta.18hr / huvec.ttl.18hr / endo.mtl.18hr / endo.tlps.18hr / endo.tta.18hr / endo.ttl.18hr: tube formation; for cm.amp.avg.90min / cm.amp.cv.90min / cm.bpm.90min / cm.cam.90min / cm.decay.rise.90min / cm.mii.90min / cm.mito.90min / cm.spacing.cv.90min / cm.tc.90min / cm.amp.avg.24hrs / cm.amp.cv.24hrs / cm.bpm.24hrs / cm.cam.24hrs / cm.decay.rise.24hrs / cm.mii.24hrs / cm.mito.24hrs / cm.spacing.cv.24hrs / cm.tc.24hrs: iPSC cardiomyocytes; for endo.cyto.24hr / endo.mito.24hr / endo.mitoint.24hr / endo.nma.24hr / endo.tc.24hr / endo.mtl.18hr / endo.tlps.18hr / endo.tta.18hr / endo.ttl.18hr: iPSC endothelial cells
From the text: Phenotypic responses were quantitatively assessed using concentration–response modeling as detailed elsewhere ([Sirenko et al. 2017]). Briefly, phenotypic readouts were normalized to vehicle controls and fit to a four-parameter logistic model in R studio software (version 3.1.1; R Development Core Team). Following EPA guidance on dose–response modeling, a cutoff of one standard deviation across means of vehicle control (i.e., 0.5% vol/vol DMSO in cell culture media) wells was applied to determine the point-of-departure (POD) values ([U.S. EPA 2012]). In the absence of a concentration–response, the highest tested concentration (i.e., 100μM ) was assigned as “no observable adverse effect level.” The concentration–response assessment R script, as well as templates for vehicle and concentration–response data, are available as a supplement to Sirenko et al. ([2017]). The ability of physicochemical properties to predict differences in PODs were evaluated by multiregression and mixed-effects modeling using R.
POD values were then integrated using ToxPi 2.0 ([Marvel et al. 2018]) software. In ToxPi, each slice is representative of cell type– and time-point–specific phenotypes. The area of each slice is proportional to the relative value (e.g., bioactivity or physicochemical descriptor value) of the chemical within the data set. ToxPi scores were used to rank PCBs and their metabolites according to their overall bioactivity and to determine variability in total observable biological responses and chemical characteristics for each major metabolite class and chlorination status (mono-, hexa-chlorinated). Additional visualizations such as dumbbell and principal components analysis plots were generated in R Studio (version 1.1.456; R version 3.5.1; R Development Core Team) using the ggplot2 package.

[2] = tube formation mtl, read-out: POD huvec.mtl.18hr
[3] = tube formation tlps, read-out: POD huvec.tlps.18hr
[4] = tube formation tta, read-out: POD huvec.tta.18hr
[5] = tube formation ttl, read-out: POD huvec.ttl.18hr
[6] = HUVECs, 0.00 µM = 100.00, read-out: huvec.mtl.18hr
[7] = HUVECs, 0.00 µM = 100.00, read-out: huvec.tlps.18hr
[8] = HUVECs, 0.00 µM = 100.00, read-out: huvec.tta.18hr
[9] = HUVECs, 0.00 µM = 100.00, read-out: huvec.ttl.18hr

`O=C1C=CC(=O)C(c2ccc(Cl)cc2)=C1` [4-Cl-BQ, 2-(4-Chlorophenyl)benzo-2,5-quinone] was tested, and the minimal effective concentration (HUVECs; [2]) was 1.18 µM, the minimal effective concentration (HUVECs; [3]) was 5.25 µM and the minimal effective concentration (HUVECs; [4]) was 0.65 µM. It also gave a minimal effective concentration (HUVECs; [5]) of 0.25 µM, an activity at 0.01 µM (HUVECs; [6]) of 108% and an activity at 0.01 µM (HUVECs; [7]) of 136%. It also gave an activity at 0.01 µM (HUVECs; [8]) of 110%, an activity at 0.01 µM (HUVECs; [9]) of 98.6% and an activity at 0.1 µM (HUVECs; [6]) of 104%. The activity at 0.1 µM (HUVECs; [7]) was 134%, the activity at 0.1 µM (HUVECs; [8]) was 99.2% and the activity at 0.1 µM (HUVECs; [9]) was 97.1%. For the same compound, the activity at 1 µM (HUVECs; [6]) was 92.4%, the activity at 1 µM (HUVECs; [7]) was 139% and the activity at 1 µM (HUVECs; [8]) was 71%. The activity at 1 µM (HUVECs; [9]) was 68.3%, the activity at 10 µM (HUVECs; [6]) was 57.7% and the activity at 10 µM (HUVECs; [7]) was 26.2%. It also gave an activity at 10 µM (HUVECs; [8]) of 36.4%, an activity at 10 µM (HUVECs; [9]) of 40% and an activity at 100 µM (HUVECs; [6]) of 55.2%. The activity at 100 µM (HUVECs; [7]) was 14.3%, the activity at 100 µM (HUVECs; [8]) was 8.95% and the activity at 100 µM (HUVECs; [9]) was 11.6%. The minimal effective concentration (HUVECs; HUVECs, top concentration 100.00 µM, read-out: huvec.mtl.18hr POD) was 1.18 µM, the minimal effective concentration (HUVECs; HUVECs, top concentration 100.00 µM, read-out: huvec.tlps.18hr POD) was 5.25 µM and the minimal effective concentration (HUVECs; HUVECs, top concentration 100.00 µM, read-out: huvec.tta.18hr POD) was 0.65 µM. The minimal effective concentration (HUVECs; HUVECs, top concentration 100.00 µM, read-out: huvec.ttl.18hr POD) was 0.25 µM, the huvec.cyto.24hr [1] was 1 and the huvec.mito.24hr [1] was 0.8466. For the same compound, the huvec.mitoint.24hr [1] was 0.9878, the huvec.nma.24hr [1] was 0.6676 and the huvec.tc.24hr [1] was 1. The huvec.mtl.18hr [1] was 0.9933, the huvec.tlps.18hr [1] was 0.5585 and the huvec.tta.18hr [1] was 1. The huvec.ttl.18hr [1] was 0.8997, the cm.amp.avg.90min [1] was 0.3159 and the cm.amp.cv.90min [1] was 0.2492. For the same compound, the cm.bpm.90min [1] was 0.1564, the cm.cam.90min [1] was 0.4034 and the cm.decay.rise.90min [1] was 0.215. For the same compound, the cm.mii.90min [1] was 0.8851, the cm.mito.90min [1] was 0.387 and the cm.spacing.cv.90min [1] was 0.3114. For the same compound, the cm.tc.90min [1] was 0, the cm.amp.avg.24hrs [1] was 0.3257 and the cm.amp.cv.24hrs [1] was 0.3094. It also gave a cm.bpm.24hrs [1] of 0.6578, a cm.cam.24hrs [1] of 1 and a cm.decay.rise.24hrs [1] of 0.8647. For the same compound, the cm.mii.24hrs [1] was 0.2031, the cm.mito.24hrs [1] was 0.702 and the cm.spacing.cv.24hrs [1] was 0.7459. It also gave a cm.tc.24hrs [1] of 0, an endo.cyto.24hr [1] of 0.5702 and an endo.mito.24hr [1] of 0.5702. For the same compound, the endo.mitoint.24hr [1] was 0.2683, the endo.nma.24hr [1] was 0.3599 and the endo.tc.24hr [1] was 0.6463. The endo.mtl.18hr [1] was 0.5822, the endo.tlps.18hr [1] was 0.7309 and the endo.tta.18hr [1] was 0.1339. It also gave an endo.ttl.18hr [1] of 0.1969.
Work on `Oc1ccc(-c2cccc(Cl)c2)cc1Cl` [4-OH-PCB 11] yielded a minimal effective concentration (HUVECs; [2]) of 7.09 µM, a minimal effective concentration (HUVECs; [3]) of 35.3 µM and a minimal effective concentration (HUVECs; [4]) of 100 µM. For the same compound, the minimal effective concentration (HUVECs; [5]) was 4.15 µM, the huvec.cyto.24hr [1] was 0.4438 and the huvec.mito.24hr [1] was 0.5256. It also gave a huvec.mitoint.24hr [1] of 0.5773, a huvec.nma.24hr [1] of 0.5884 and a huvec.tc.24hr [1] of 0.4438. For the same compound, the huvec.mtl.18hr [1] was 0.5918, the huvec.tlps.18hr [1] was 0.1971 and the huvec.tta.18hr [1] was 0. The huvec.ttl.18hr [1] was 0.4794, the cm.amp.avg.90min [1] was 0.7012 and the cm.amp.cv.90min [1] was 0.353. For the same compound, the cm.bpm.90min [1] was 0.1603, the cm.cam.90min [1] was 0.5301 and the cm.decay.rise.90min [1] was 0.5246. The cm.mii.90min [1] was 0.417, the cm.mito.90min [1] was 0.3722 and the cm.spacing.cv.90min [1] was 0.09289. It also gave a cm.tc.90min [1] of 0.417, a cm.amp.avg.24hrs [1] of 0 and a cm.amp.cv.24hrs [1] of 0.6637. The cm.bpm.24hrs [1] was 0.3605, the cm.cam.24hrs [1] was 0.33 and the cm.decay.rise.24hrs [1] was 0.2928. The cm.mii.24hrs [1] was 0.2219, the cm.mito.24hrs [1] was 0.5458 and the cm.spacing.cv.24hrs [1] was 0.4379. It also gave a cm.tc.24hrs [1] of 0.5639, an endo.cyto.24hr [1] of 0.145 and an endo.mito.24hr [1] of 0.145. The endo.mitoint.24hr [1] was 0.2813, the endo.nma.24hr [1] was 0.4122 and the endo.tc.24hr [1] was 0.08397. For the same compound, the endo.mtl.18hr [1] was 0.181, the endo.tlps.18hr [1] was 0.1031 and the endo.tta.18hr [1] was 0.1681. For the same compound, the endo.ttl.18hr [1] was 0.1683.
In the case of `Oc1cc(Cl)c(-c2cc(Cl)ccc2Cl)cc1Cl` [4-OH-PCB 52], the minimal effective concentration (HUVECs; [2]) was 8.34 µM, the minimal effective concentration (HUVECs; [3]) was 4.13 µM and the minimal effective concentration (HUVECs; [4]) was 51.8 µM. It also gave a minimal effective concentration (HUVECs; [5]) of 62.1 µM, a huvec.cyto.24hr [1] of 0.4769 and a huvec.mito.24hr [1] of 0.5351. For the same compound, the huvec.mitoint.24hr [1] was 0.7457, the huvec.nma.24hr [1] was 0 and the huvec.tc.24hr [1] was 0.4769. It also gave a huvec.mtl.18hr [1] of 0.5555, a huvec.tlps.18hr [1] of 0.604 and a huvec.tta.18hr [1] of 0.1308. It also gave a huvec.ttl.18hr [1] of 0.07185, a cm.amp.avg.90min [1] of 0.2901 and a cm.amp.cv.90min [1] of 0.2696. The cm.bpm.90min [1] was 1, the cm.cam.90min [1] was 1 and the cm.decay.rise.90min [1] was 0.2017. The cm.mii.90min [1] was 0.2919, the cm.mito.90min [1] was 1 and the cm.spacing.cv.90min [1] was 0.1401. The cm.tc.90min [1] was 1, the cm.amp.avg.24hrs [1] was 0.1949 and the cm.amp.cv.24hrs [1] was 0.09883. For the same compound, the cm.bpm.24hrs [1] was 0.4544, the cm.cam.24hrs [1] was 0.15 and the cm.decay.rise.24hrs [1] was 0.2583. For the same compound, the cm.mii.24hrs [1] was 0.1136, the cm.mito.24hrs [1] was 0.2161 and the cm.spacing.cv.24hrs [1] was 0.3488. For the same compound, the cm.tc.24hrs [1] was 0.2027, the endo.cyto.24hr [1] was 0.3535 and the endo.mito.24hr [1] was 0.3535. The endo.mitoint.24hr [1] was 0.1136, the endo.nma.24hr [1] was 0.0802 and the endo.tc.24hr [1] was 0.3161. The endo.mtl.18hr [1] was 0.2459, the endo.tlps.18hr [1] was 0.3982 and the endo.tta.18hr [1] was 0.1729. The endo.ttl.18hr [1] was 0.1737.
